According to patent US20260224588A1, “BENZODIAZEPINONE-DERIVED INHIBITORS OF EGFR AND HER2” (The Research Foundation for the State University of New York, priority 2023, published 2026):
“Also recorded” adds a separate entry of the source.

What was measured:
WNK1 = target: T1, WNK1 (Homo sapiens, UniProt Q9H4A3); test: KINOMEscan; type: binding; settings: 1 μM of compound 4; read-out: POC
T1 construct: purchased Eurofins DiscoverX

ERBB4 = target: T2, ERBB4 (Homo sapiens, UniProt Q15303); test: KINOMEscan; type: binding; settings: 1 μM of compound 4; read-out: POC
T2 construct: purchased Eurofins DiscoverX Corporation

ALK = ALK (Homo sapiens, UniProt Q9UM73); test: KINOMEscan; type: binding; settings: 1 μM of compound 4; read-out: POC
DRAK1 = DRAK1 (Homo sapiens, UniProt Q9UEE5); test: KINOMEscan; type: binding; settings: 1 μM of compound 4; read-out: POC
QSK = target: T3, QSK (Homo sapiens, UniProt Q9Y2K2); test: KINOMEscan; type: binding; settings: 1 μM of compound 4; read-out: POC
T3 construct: purchased Eurofins DiscoverX Corporation (KINOMEscan screening service)

SLK = target: T4, SLK (Homo sapiens, UniProt Q9H2G2); test: KINOMEscan; type: binding; settings: 1 μM of compound 4; read-out: POC
T4 construct: purchased Eurofins DiscoverX (KINOMEscan service)

YSK1 = target: T5, YSK1 (Homo sapiens, UniProt O00506); test: KINOMEscan; type: binding; settings: 1 μM of compound 4; read-out: POC
T5 construct: purchased Eurofins DiscoverX

CSNK2A2 = CSNK2A2 (Homo sapiens, UniProt P19784); test: KINOMEscan; type: binding; settings: 1 μM of compound 4; read-out: POC
PIM3 = PIM3 (Homo sapiens, UniProt Q86V86); test: KINOMEscan; type: binding; settings: 1 μM of compound 4; read-out: POC
DYRK1B = DYRK1B (Homo sapiens, UniProt Q9Y463); test: KINOMEscan; type: binding; settings: 1 μM of compound 4; read-out: POC
PIK3CD = PIK3CD (Homo sapiens, UniProt O00329); test: KINOMEscan; type: binding; settings: 1 μM of compound 4; read-out: POC
WEE1 = target: T6, WEE1 (Homo sapiens, UniProt P30291); test: KINOMEscan; type: binding; settings: 1 μM of compound 4; read-out: POC
T6 construct: purchased Eurofins DiscoverX

[1] = test system: EGFR (L858R/T790M) in H1975 lung cancer cells; test: Western blotting of EGFR, ERK1/2 and AKT phosphorylation; type: cell-based, human; settings: 6 hours treatment
Description: FIG. 2. […] All experiments performed after 6 hours treatments of inhibitors or DMSO controls and Western blots are representative of at least three independent experiments.
Western blotting. Cells were collected and lysed with lysis buffer (5M NaCl, 1M TRIS pH 8.0, 10% SDS, 10% Triton X-100 and a tablet of protease inhibitors) and processed for Western blotting analysis. Primary antibodies used; phospho-EGFR (Tyr1068; #2234, 1:1,000), EGFR (#4267; 1:1,000), phospho-AKT (Ser473; #4060, 1:1,000), AKT (#9272, 1:1,000), phospho-ERK1/2 (Thr202/Tyr204; #4370, 1:1,000), and ERK1/2 (#4695, 1:1,000) antibodies; were purchased from Cell Signaling Technology. Secondary Goat anti-rabbit IgG starbright blue 700 and Anti-tubulin hFAB Rhodamine Tubulin were purchased from Bio-rad.

MKNK2 = MKNK2 (Homo sapiens, UniProt Q9HBH9); test: KINOMEscan; type: binding; settings: 1 μM of compound 4; read-out: POC
MAP3K3 = MAP3K3 (Homo sapiens, UniProt Q99759); test: KINOMEscan; type: binding; settings: 1 μM of compound 4; read-out: POC
NDR1 = NDR1 (Homo sapiens, UniProt Q15208); test: KINOMEscan; type: binding; settings: 1 μM of compound 4; read-out: POC
RIOK2 = target: T7, RIOK2 (Homo sapiens, UniProt Q9BVS4); test: KINOMEscan; type: binding; settings: 1 μM of compound 4; read-out: POC
T7 construct: purchased Eurofins DiscoverX Corporation (KINOMEscan screening service)

TESK1 = target: T8, TESK1 (Homo sapiens, UniProt Q15569); test: KINOMEscan; type: binding; settings: 1 μM of compound 4; read-out: POC
T8 construct: purchased Eurofins DiscoverX Corporation

CDK4 = CDK4 (Homo sapiens, UniProt P11802); test: KINOMEscan; type: binding; settings: 1 μM of compound 4; read-out: POC
PRKCQ = PRKCQ (Homo sapiens, UniProt Q04759); test: KINOMEscan; type: binding; settings: 1 μM of compound 4; read-out: POC
DAPK1 = DAPK1 (Homo sapiens, UniProt P53355); test: KINOMEscan; type: binding; settings: 1 μM of compound 4; read-out: POC
BRAF = BRAF (Homo sapiens, UniProt P15056); test: KINOMEscan; type: binding; settings: 1 μM of compound 4; read-out: POC
CDK4-cyclinD3 = CDK4-cyclinD3 (Homo sapiens, UniProt P11802); test: KINOMEscan; type: binding; settings: 1 μM of compound 4; read-out: POC
WEE2 = target: T9, WEE2 (Homo sapiens, UniProt P0C1S8); test: KINOMEscan; type: binding; settings: 1 μM of compound 4; read-out: POC
T9 construct: purchased Eurofins DiscoverX

TSSK3 = target: T10, TSSK3 (Homo sapiens, UniProt Q96PN8); test: KINOMEscan; type: binding; settings: 1 μM of compound 4; read-out: POC
T10 construct: purchased Eurofins DiscoverX Corporation

CHEK1 = CHEK1 (Homo sapiens, UniProt O14757); test: KINOMEscan; type: binding; settings: 1 μM of compound 4; read-out: POC
BRAF(V600E) = BRAF(V600E) (Homo sapiens, UniProt P15056, V600E); test: KINOMEscan; type: binding; settings: 1 μM of compound 4; read-out: POC
SGK2 = target: T11, SGK2 (Homo sapiens, UniProt Q9HBY8); test: KINOMEscan; type: binding; settings: 1 μM of compound 4; read-out: POC
T11 construct: purchased Eurofins DiscoverX (KINOMEscan service)

MARK1 = MARK1 (Homo sapiens, UniProt Q9P0L2); test: KINOMEscan; type: binding; settings: 1 μM of compound 4; read-out: POC
LIMK1 = LIMK1 (Homo sapiens, UniProt P53667); test: KINOMEscan; type: binding; settings: 1 μM of compound 4; read-out: POC
TEC = target: T12, TEC (Homo sapiens, UniProt P42680); test: KINOMEscan; type: binding; settings: 1 μM of compound 4; read-out: POC
T12 construct: purchased Eurofins DiscoverX Corporation

PRKD3 = PRKD3 (Homo sapiens, UniProt O94806); test: KINOMEscan; type: binding; settings: 1 μM of compound 4; read-out: POC
PHKG1 = PHKG1 (Homo sapiens, UniProt Q16816); test: KINOMEscan; type: binding; settings: 1 μM of compound 4; read-out: POC
Sequence of PHKG1 (Q16816 whole entry): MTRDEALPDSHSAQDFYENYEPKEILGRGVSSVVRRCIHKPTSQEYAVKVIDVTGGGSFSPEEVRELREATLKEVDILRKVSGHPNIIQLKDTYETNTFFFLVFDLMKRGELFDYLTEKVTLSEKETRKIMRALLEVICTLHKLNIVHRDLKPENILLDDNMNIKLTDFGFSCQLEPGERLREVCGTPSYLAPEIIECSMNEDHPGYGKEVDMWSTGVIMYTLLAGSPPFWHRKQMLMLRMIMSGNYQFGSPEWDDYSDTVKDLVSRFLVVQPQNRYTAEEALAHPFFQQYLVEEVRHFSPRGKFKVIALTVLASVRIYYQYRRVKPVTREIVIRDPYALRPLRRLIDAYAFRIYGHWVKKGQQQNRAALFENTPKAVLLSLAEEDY

Sequence of PRKD3 (O94806 whole entry): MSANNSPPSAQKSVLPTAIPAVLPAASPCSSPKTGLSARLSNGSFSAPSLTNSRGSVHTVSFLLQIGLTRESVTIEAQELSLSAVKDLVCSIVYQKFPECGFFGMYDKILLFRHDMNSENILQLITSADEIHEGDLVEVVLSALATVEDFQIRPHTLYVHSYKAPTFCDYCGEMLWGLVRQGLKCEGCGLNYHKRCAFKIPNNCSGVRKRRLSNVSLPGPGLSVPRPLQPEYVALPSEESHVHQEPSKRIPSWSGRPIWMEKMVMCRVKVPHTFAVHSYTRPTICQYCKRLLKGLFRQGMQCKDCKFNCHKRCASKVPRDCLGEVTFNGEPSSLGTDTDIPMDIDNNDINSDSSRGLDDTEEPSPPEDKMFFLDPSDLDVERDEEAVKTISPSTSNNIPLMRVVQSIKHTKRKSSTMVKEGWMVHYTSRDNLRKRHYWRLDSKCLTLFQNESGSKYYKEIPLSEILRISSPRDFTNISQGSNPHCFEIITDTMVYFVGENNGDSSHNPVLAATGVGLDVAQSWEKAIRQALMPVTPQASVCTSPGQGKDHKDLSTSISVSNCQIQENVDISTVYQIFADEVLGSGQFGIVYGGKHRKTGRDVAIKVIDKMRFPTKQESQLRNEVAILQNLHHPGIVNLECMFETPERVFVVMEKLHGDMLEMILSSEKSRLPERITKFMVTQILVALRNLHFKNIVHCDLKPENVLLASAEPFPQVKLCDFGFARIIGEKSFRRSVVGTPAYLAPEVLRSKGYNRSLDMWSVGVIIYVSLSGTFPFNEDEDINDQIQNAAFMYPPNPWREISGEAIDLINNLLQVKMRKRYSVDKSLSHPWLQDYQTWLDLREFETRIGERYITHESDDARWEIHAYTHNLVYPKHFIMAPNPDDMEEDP
T4 sequence (Q9H2G2 whole entry): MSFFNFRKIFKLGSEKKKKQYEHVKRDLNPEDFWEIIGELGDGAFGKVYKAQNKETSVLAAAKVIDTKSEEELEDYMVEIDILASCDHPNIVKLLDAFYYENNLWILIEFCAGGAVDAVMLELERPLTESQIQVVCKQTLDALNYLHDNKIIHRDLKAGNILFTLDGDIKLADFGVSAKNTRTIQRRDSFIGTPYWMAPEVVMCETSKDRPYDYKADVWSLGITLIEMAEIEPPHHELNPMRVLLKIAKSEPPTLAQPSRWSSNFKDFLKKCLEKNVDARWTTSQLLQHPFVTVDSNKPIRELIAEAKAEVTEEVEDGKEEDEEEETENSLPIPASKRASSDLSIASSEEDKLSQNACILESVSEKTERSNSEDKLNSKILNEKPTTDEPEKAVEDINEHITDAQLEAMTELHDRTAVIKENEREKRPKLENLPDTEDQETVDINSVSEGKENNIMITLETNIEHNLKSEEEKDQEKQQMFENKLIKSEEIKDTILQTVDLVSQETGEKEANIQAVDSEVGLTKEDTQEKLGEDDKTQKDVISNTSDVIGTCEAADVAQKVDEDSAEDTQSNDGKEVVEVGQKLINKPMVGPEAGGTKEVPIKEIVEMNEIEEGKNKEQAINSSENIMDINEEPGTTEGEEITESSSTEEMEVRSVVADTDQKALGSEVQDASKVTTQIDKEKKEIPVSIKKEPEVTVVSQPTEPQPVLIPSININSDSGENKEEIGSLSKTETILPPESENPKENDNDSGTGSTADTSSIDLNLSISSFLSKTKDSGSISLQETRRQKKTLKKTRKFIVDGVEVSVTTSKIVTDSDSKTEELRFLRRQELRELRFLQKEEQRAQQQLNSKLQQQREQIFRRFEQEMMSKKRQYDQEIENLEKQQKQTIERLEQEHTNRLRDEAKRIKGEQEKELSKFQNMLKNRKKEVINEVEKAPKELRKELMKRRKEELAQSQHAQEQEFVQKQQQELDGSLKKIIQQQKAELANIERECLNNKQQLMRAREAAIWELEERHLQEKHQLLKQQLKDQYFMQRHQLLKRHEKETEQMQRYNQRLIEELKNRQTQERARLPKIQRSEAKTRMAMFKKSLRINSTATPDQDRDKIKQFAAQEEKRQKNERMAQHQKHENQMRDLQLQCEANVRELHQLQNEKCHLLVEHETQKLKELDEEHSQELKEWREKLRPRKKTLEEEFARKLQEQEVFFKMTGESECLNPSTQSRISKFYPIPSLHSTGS
T3 sequence (Q9Y2K2 whole entry): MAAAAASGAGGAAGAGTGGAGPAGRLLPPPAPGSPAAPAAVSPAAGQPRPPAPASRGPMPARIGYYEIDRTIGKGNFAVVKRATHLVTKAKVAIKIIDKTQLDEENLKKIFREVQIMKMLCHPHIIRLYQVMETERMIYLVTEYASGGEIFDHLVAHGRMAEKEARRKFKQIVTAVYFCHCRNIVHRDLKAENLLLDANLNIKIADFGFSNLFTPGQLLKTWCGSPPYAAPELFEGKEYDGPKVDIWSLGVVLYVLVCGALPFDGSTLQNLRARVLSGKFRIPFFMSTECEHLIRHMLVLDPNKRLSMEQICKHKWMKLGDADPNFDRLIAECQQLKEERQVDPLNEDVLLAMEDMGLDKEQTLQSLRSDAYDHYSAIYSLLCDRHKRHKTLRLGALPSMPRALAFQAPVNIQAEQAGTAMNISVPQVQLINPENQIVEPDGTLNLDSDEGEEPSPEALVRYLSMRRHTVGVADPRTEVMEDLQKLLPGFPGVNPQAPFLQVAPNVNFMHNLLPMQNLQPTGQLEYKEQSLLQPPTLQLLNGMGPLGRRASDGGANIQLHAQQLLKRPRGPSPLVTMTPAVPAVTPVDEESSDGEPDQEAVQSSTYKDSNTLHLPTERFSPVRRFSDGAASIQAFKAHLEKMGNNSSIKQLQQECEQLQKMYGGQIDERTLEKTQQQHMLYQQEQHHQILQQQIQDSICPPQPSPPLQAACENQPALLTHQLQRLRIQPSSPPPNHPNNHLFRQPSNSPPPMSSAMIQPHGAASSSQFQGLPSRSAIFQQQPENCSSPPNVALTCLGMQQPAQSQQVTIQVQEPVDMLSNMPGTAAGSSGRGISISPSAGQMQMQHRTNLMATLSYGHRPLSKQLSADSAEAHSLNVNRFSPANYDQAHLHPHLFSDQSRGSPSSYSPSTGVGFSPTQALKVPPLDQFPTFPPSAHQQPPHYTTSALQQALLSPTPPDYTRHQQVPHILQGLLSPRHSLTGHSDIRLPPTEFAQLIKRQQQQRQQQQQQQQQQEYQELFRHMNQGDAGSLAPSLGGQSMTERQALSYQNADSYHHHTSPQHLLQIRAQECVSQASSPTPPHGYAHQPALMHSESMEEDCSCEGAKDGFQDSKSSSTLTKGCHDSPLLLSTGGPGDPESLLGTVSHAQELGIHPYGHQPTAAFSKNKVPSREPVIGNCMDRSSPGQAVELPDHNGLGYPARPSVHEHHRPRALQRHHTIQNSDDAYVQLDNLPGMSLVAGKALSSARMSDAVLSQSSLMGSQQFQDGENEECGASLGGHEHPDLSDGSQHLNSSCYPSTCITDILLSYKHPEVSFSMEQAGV
Sequence of BRAF (P15056 whole entry): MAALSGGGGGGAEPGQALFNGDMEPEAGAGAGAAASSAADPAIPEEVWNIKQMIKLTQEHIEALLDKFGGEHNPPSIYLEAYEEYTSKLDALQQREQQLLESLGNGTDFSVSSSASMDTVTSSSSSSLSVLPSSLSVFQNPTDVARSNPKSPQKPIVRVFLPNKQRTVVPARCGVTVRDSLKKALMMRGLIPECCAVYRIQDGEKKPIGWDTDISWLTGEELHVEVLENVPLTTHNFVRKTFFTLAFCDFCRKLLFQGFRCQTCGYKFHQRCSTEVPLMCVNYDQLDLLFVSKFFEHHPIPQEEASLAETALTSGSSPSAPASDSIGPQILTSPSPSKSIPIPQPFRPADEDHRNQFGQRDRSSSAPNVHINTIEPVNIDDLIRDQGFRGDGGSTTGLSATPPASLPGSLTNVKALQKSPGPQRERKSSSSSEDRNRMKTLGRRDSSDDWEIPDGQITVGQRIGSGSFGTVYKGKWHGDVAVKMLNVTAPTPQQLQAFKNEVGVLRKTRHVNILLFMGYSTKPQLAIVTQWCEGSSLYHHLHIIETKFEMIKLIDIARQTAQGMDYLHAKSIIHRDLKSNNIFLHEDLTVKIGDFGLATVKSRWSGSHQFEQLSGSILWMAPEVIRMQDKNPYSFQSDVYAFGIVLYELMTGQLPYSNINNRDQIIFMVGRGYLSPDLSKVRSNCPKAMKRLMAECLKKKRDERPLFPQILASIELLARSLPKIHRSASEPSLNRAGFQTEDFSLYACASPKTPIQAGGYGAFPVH
Sequence of CSNK2A2 (P19784 whole entry): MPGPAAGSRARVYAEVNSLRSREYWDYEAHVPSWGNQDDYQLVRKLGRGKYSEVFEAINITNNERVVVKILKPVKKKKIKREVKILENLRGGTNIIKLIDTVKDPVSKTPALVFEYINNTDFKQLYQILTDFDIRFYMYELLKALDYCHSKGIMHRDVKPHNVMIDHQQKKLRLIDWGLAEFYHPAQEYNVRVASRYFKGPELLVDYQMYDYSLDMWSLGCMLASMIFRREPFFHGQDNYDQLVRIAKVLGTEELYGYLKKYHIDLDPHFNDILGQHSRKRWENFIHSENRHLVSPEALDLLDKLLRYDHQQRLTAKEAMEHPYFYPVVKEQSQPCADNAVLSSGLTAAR
Sequence of BRAF(V600E) (P15056 whole entry V600E): as the sequence (P15056 whole entry) above, with V600E counted along it

C=CC(=O)Nc1ccc(OC)c(Nc2cc(-c3[nH]c(CC)nc3-c3cccc(NC(=O)c4cccc5c4NC(=O)c4ccccc4N5)c3)ccn2)c1 [Compound 4, N-(3-(5-(2-((5-Acrylamido-2-methoxyphenyl)amino)pyridin-4-yl)-2-ethyl-1H-imidazol-4-yl)phenyl)-11-oxo-10,11-dihydro-5H-dibenzo[b,e][1,4]diazepine-9-carboxamide]
remaining binding at 1 µM (WNK1): 100% | remaining binding at 1 µM (ERBB4): 4.9% | remaining binding at 1 µM (ALK): 100% | remaining binding at 1 µM (DRAK1): 84% | remaining binding at 1 µM (QSK): 100% | remaining binding at 1 µM (SLK): 100% | remaining binding at 1 µM (YSK1): 76% | remaining binding at 1 µM (CSNK2A2): 58% | remaining binding at 1 µM (PIM3): 100% | remaining binding at 1 µM (DYRK1B): 88% | remaining binding at 1 µM (PIK3CD): 71% | remaining binding at 1 µM (WEE1): 85% | EGFR, ERK1/2 and AKT phosphorylation (Western blot) [1]: most effective in suppression of active EGFR (pY1068) as well as downstream pERK; also recorded: reduces EGFR (L858R/T790M), ERK1/2, and AKT phosphorylation | remaining binding at 1 µM (MKNK2): 100% | remaining binding at 1 µM (MAP3K3): 51% | remaining binding at 1 µM (NDR1): 73% | remaining binding at 1 µM (RIOK2): 83% | remaining binding at 1 µM (TESK1): 94% | remaining binding at 1 µM (CDK4): 100% | remaining binding at 1 µM (PRKCQ): 18% | remaining binding at 1 µM (DAPK1): 86% | remaining binding at 1 µM (BRAF): 90% | remaining binding at 1 µM (CDK4-cyclinD3): 49% | remaining binding at 1 µM (WEE2): 98% | remaining binding at 1 µM (TSSK3): 100% | remaining binding at 1 µM (CHEK1): 100% | remaining binding at 1 µM (BRAF(V600E)): 100% | remaining binding at 1 µM (SGK2): 83% | remaining binding at 1 µM (MARK1): 92% | remaining binding at 1 µM (LIMK1): 79% | remaining binding at 1 µM (TEC): 45% | remaining binding at 1 µM (PRKD3): 67% | remaining binding at 1 µM (PHKG1): 96%
